By IC50 is commonly meant the concentration needed to halve the response being measured.

In patent publication US11485740B2, “Inhibitors of TRPC6” (Boehringer Ingelheim International GmbH, priority 2018, dated 2022) one finds IC50 data, which are given here for 13 molecules.

The target of this experiment is T1, human TRPC6 (Homo sapiens, UniProt Q9Y210).
T1 construct: expressed in transfected cells
T1 sequence (Q9Y210 1-931): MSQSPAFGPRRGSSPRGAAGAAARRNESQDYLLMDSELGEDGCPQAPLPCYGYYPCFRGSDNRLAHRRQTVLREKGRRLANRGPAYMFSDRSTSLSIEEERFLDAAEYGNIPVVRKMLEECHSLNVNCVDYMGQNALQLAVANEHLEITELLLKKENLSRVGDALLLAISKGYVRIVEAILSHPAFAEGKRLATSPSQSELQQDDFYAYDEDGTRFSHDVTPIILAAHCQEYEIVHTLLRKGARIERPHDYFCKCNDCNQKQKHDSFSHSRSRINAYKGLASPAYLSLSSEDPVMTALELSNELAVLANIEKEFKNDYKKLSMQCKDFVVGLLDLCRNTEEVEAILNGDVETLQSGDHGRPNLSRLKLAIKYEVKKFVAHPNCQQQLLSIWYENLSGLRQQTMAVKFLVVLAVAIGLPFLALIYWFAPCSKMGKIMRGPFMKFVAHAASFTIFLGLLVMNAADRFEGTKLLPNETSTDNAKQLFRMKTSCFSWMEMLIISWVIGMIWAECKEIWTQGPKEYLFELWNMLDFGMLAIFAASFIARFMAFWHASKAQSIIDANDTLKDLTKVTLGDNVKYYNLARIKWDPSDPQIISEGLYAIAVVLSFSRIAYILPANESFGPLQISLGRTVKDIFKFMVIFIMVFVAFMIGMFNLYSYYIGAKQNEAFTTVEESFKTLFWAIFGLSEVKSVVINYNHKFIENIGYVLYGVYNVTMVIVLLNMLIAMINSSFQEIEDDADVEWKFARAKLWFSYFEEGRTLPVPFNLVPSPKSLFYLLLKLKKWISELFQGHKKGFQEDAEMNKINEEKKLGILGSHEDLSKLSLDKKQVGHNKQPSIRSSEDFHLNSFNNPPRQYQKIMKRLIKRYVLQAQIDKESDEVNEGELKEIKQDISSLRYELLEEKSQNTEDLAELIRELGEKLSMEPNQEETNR
Nature of the experiment: High throughput screening assay: Fluo4/AM calcium fluorescence in HEK293/TREx cells expressing human TRPC6, agonist GSK1702934A (single concentration 10 μM and IC50 curves). The experiment is classed as cell-based. The conditions noted are these: antagonist effect against human TRPC6, 7 concentrations 20 μM to 0.027 μM, triplicate. The source says: High Throughput Screening Assay
This screening assay measures human TRPC6 (transient receptor potential cation channel, subfamily C, member 6) ion channel activation via addition either of the commercially available DAG ligand analogue OAG (1-oleoyl-2-acetyl-sn-glycerol) or of the TRPC6 agonist 1-[1-(4,5,6,7,8-pentahydrocyclohepta[2,1-d]thiophen-2-ylcarbonyl)-4-piperidyl]-3-hydrobenzimidazol-2-one (GSK1702934A). The assay utilizes a fluorescent calcium sensor 4-(6-Acetoxymethoxy-2,7-difluoro-3-oxo-9-xanthenyl)-4′-methyl-2,2′-(ethylenedioxy)dianiline-N,N,N′,N′-tetraacetic acid tetrakis(acetoxymethyl) ester (Fluo4/AM) dye from Molecular Devices. Changes (increases) in intracellular calcium concentration as measured by the fluorescent signal increase provide a measurement of channel activity.
The commercially available HEK293/TREx line (Invitrogen) was stably transfected with a human TRPC6 construct and screened by conventional calcium imaging to find clones with human TRPC6 expression following stimulation with 1 μg/ml tetracycline. These cells were maintained in the growth medium recommended by the manufacturer supplemented with 100 μg/ml hygromycin to promote retention of the human TRPC6 construct. After growing to near confluency, cells were plated at a density of ^˜35,000 cells/well in 384 well CellBind plates (Corning) in the presence of 1 μg/ml tetracycline, and allowed to grow for 20-30 hrs. A nearly confluent monolayer resulted. Growth media was removed from the wells and cells were then loaded with […] Fluo4/AM diluted in Ringer's Solution (6.5 g NaCl, 0.42 g KCl, 0.25 g CaCl2) and 0.2 g of sodium bicarbonate; pH 7.4) supplemented with 1% Pluronic F-127 to a final concentration of 0.5 μM and incubated for 60 min, at room temperature. Dye solution was then removed from the cells by inverting plates with a sharp flick, and replaced with 25 μl Ringer's. Following ^˜0.5 hour for recovery from loading, cells were assayed using the Hamamatsu FDSS 6000 system, which permitted illumination at 485 nm. Frames were acquired at a rate of 0.2 Hz. During the assay, the plates were continuously vortexed, with pipette mixing of wells following addition of each reagent. For the screening assay, 26 μl of a diluted compound stock (at 50 μM) was added to each well for 2 minutes following the collection of a short (4 frame) baseline. 13 μl of agonist solution consisting of 125 nM GSK1702934A diluted in high-Ca2+Ringer solution (containing 90 mM Ca2+) was then added to each well, achieving a final concentration of 20 mM Ca2+ and 10 μM test compound. Data was collected for ^˜3 minutes following addition of high Ca2+Ringer. The fluorescent intensity observed at a particular timepoint for each well was divided by the initial fluorescent intensity for that well and the overall response was determined by averaging the resulting fluorescent ratio of the last 4 frames acquired during the experiment excepting the final frame. Negative and Positive controls were included on each plate. Negative controls wells consisted of HEK293/TREx TRPC6 cells exposed to assay buffer and agonist solution, but no test compound. Positive control consisted of wells consisted of HEK293/TREx TRPC6 cells exposed to 25 μM 3-[(2-chlorophenoxy)methyl]phenyl piperidyl ketone (Chembridge) diluted in Ringer's solution and agonist solution. These controls defined zero percent and 100 percent block respectively, and intensity of each well was normalized to these values.
Compounds were tested in triplicate at all concentrations. Standard software was used to fit IC50 curves.
For the molecule `COc1cc(C(=O)N2CCN(c3cnc(N)cc3OC)C[C@H]2CO)ncc1-c1ccccc1` [Compound 89, [(S)-4-(6-Amino-4-methoxy-pyridin-3-yl)-2-hydroxymethyl-piperazin-1-yl]-(4-methoxy-5-phenyl-pyridin-2-yl)-methanone], the IC50 turned out to be 540 nM.

Take `COc1cc(-c2cnc(C(=O)N3CCC(c4ccc(N)nn4)CC3)cc2OC)ccc1F` [Compound 14, [4-(6-Amino-pyridazin-3-yl)-piperidin-1-yl]-[5-(4-fluoro-3-methoxy-phenyl)-4-methoxy-pyridin-2-yl]-methanone]: the IC50 amounted to 3300 nM.

Turning to `COc1cc(C(=O)N2CCN(c3ccc(N)nc3)CC2)ncc1-c1ccc(C(F)(F)F)nc1` [Compound 67, [4-(6-Amino-pyridin-3-yl)-piperazin-1-yl]-(4-methoxy-6′-trifluoromethyl-[3,3′]bipyridinyl-6-yl)-methanone], the IC50 worked out at 210 nM.

`C[C@@H]1CN(C(=O)c2ccc(-c3ccc(C(F)(F)F)cc3)cc2)CCN1c1ccc(N)nc1` [Compound 113, [(R)-4-(6-Amino-pyridin-3-yl)-3-methyl-piperazin-1-yl]-(4′-trifluoromethyl-biphenyl-4-yl)-methanone]: the IC50 was 2800 nM.

As to `COc1cc(C(=O)N2CCC(c3ccc(N)nc3)CC2)ncc1-c1ccccc1` [Compound 71, 5-[1-(4-Methoxy-5-phenylpyridine-2-carbonyl)piperidin-4-yl]pyridin-2-amine], the IC50 is 27 nM.

Regarding `COc1cc(C(=O)N2CCC(c3ccc(N)nn3)CC2)cnc1-c1ccc(C(F)(F)F)cc1` [Compound 65, [4-(6-Amino-pyridazin-3-yl)-piperidin-1-yl]-[5-methoxy-6-(4-trifluoromethyl-phenyl)-pyridin-3-yl]-methanone], the IC50 came out at 860 nM.

As to `COc1cc(C(=O)N2CCC(c3ccc(N)nn3)CC2)ncc1-c1ccc(OC2CC2)cc1` [Compound 41, [4-(6-Amino-pyridazin-3-yl)-piperidin-1-yl]-[5-(4-cyclopropoxy-phenyl)-4-methoxy-pyridin-2-yl]-methanone], the IC50 is 130 nM.

As for `Nc1ccc(C2CCN(C(=O)c3ccc(-c4cccc(Cl)c4)cc3)CC2)nn1` [Compound 6, [4-(6-Amino-pyridazin-3-yl)-piperidin-1-yl]-(3′-chloro-biphenyl-4-yl)-methanone], the 50% inhibitory concentration (IC50) worked out at 4400 nM.

Regarding `COc1cc(C(=O)N2CCC(c3ccc(N)nn3)CC2)ncc1-c1cccc(OCC2CC2)c1` [Compound 21, [4-(6-Amino-pyridazin-3-yl)-piperidin-1-yl]-[5-(3-cyclopropylmethoxy-phenyl)-4-methoxy-pyridin-2-yl]-methanone], the IC50 is 160 nM.

`COc1cc(C(=O)N2CCC(c3ccc(N)nn3)CC2)ncc1-c1ccc(OC2CC2)nc1` [Compound 112, [4-(6-Amino-pyridazin-3-yl)-piperidin-1-yl]-(6′-cyclopropoxy-4-methoxy-[3,3′]bipyridinyl-6-yl)-methanone]: the IC50 was 1400 nM.

On to `CCc1ccc(-c2cnc(C(=O)N3CCC(c4ccc(N)nn4)CC3)cc2OC)cn1` [Compound 44, [4-(6-Amino-pyridazin-3-yl)-piperidin-1-yl]-(6′-ethyl-4-methoxy-[3,3′]bipyridinyl-6-yl)-methanone], for which the IC50 is 1700 nM.

For `COc1cc(C(=O)N2CCC(c3ccc(N)nn3)CC2)ncc1-c1cccc(OCC(C)C)c1` [Compound 52, [4-(6-Amino-pyridazin-3-yl)-piperidin-1-yl]-[5-(3-isobutoxy-phenyl)-4-methoxy-pyridin-2-yl]-methanone], the 50% inhibitory concentration (IC50) was 240 nM.

Regarding `COc1cc(C(=O)N2CCN(c3cnc(N)cc3C)C[C@@H]2CO)ncc1-c1ccc(C(F)(F)F)cc1` [Compound 92, [(R)-4-(6-Amino-4-methyl-pyridin-3-yl)-2-hydroxymethyl-piperazin-1-yl]-[4-methoxy-5-(4-trifluoromethyl-phenyl)-pyridin-2-yl]-methanone], the IC50 came out at 56 nM.
